Entries after “also recorded” stand apart in the source; their conditions may differ.
Legend:
[1] = test system: TGase activity (tTGase and Factor XIIIa) in meniscal cells; assay: TGase activity in cultured knee meniscal cells (BP incorporation into N,N-dimethylcasein); assay type: cell-based, human; conditions: monolayer culture, 48-72 hrs; IL-1β, TGFβ, TNFα 10 ng/ml; Noc-12 2.5-25 μM; Sin-1 1-10 μM
Method: Meniscal cells were maintained in DMEM high glucose and supplemented with 10% FCS, 1% L-glutamine, 100 units/ml Penicillin and 50 μg/ml Streptomycin (Omega Scientific, Tarzana, Calif.) and cultured at 37° C. with 5% CO2. In monolayer cell culture studies involving stimulation by TGFE[…] or IL-1, the cells were placed in DMEM high glucose containing 1% FCS, 1% L-glutamine, 100 units/ml Penicillin and 50 μg/ml Streptomycin. In all other studies, the cells were cultured in complete medium (as described above). Only primary or first passage meniscal cells were studied.
(§1) TGase activity was measured by modifications to a previously described method (35). Specifically, we coated 96 well ImmunoModule plates (Nunc, Rochester, N.Y.) with 200 μl of 20 mg/ml N,N-dimethylcasein for 1 hr at 23° C. The N,N-dimethylcasein was removed and nonspecific protein binding was blocked by adding 3% BSA in 100 mM Tris, pH 8.5, 150 mM NaCl, 0.05% Tween-20 (TBST) to each well for an additional 1 hr at 23° C. Then, aliquots of 5 μg of total cellular protein from meniscal or TC28 cells that had been lysed and sonicated (in 5 mM Tris HCl, 0.25 M sucrose, 0.2 mM MgSO4, 2 mM DTT, 0.4 mM PMSF, 0.4% Triton X100, pH 7.5), were added to the plate in triplicate. To measure TGase in extracts of whole menisci, 50 mg dry weight of tissue from the central zone of each medial meniscus was used as the source (after solubilization and sonication) for aliquots of 5 μg of soluble protein. Fifty μl of solution A (100 mM Tris, pH 8.5 and 20 mM CaCl2) was added to all samples for TGase assay, followed by the addition of 50 μl of solution B (100 mM Tris, pH 8.5, 40 mM DTT and freshly added 2 mM 5-(Biotinamido) pentylamine (BP)). The plates were incubated for 1 hr at 37° C. The wells were washed once with TBST containing 1 mM EDTA and then three times with TBST. One hundred μl of a 1:500 dilution of streptavidin-AP in 3% BSA/TBST was added to each well for 1 hr at 23° C. The wells were washed twice with TBST, and 200 μl of solution C (100 mM Tris, pH 9.8, mM NaCl, 5 mM MgCl2, 1 mg/ml of freshly added p-nitrophenylphosphate) was added to each well. Readings at OD410 were taken over 15 minutes. Purified guinea pig liver TGase (Sigma) was used to prepare a standard curve. TGase activity was designated as the amount of BP incorporated into casein (per μg cellular DNA, determined chromogenically following precipitation in perchlorate (28), or, where indicated, per μg protein, determined as previously described (28)).
To directly induce expression of each TGase in meniscal cells, 5×10^5 primary cells were plated in 60 mm dishes and allowed to adhere overnight. We modified (28) the manufacturer's protocol for the Lipofectamine Plus kit (Life Technologies, Grand Island, N.Y.). To optimize the transfection of meniscal cells, we added 2.0 ml of serum-free DMEM/F12 containing 0.00015% digitonin to washed cells and incubated for 3 min at 23° C. Then, media was removed, and cells transfected at 37° C. for 7 hrs, followed by removal of the media and addition of complete DMEM high glucose medium. Transfection of each TGase into TC28 cells was done by the same procedure, with the exception that the digitonin permeabilization step was omitted.

[2] = test system: TGase activity in knee meniscal cells and TC28 cells; assay: TGase activity in nonadherent nodule-forming culture on polyHEME; assay type: cell-based, human; conditions: polyHEME plates, β-glycerophosphate, ascorbate, dexamethasone, up to 10 days; cytokines 10 ng/ml or TGase transfection
Method: FIG. 10 refers to effects of direct Factor XIIIa and tTGase expression on TGase activity in meniscal cells and TC28 cells. Human chondrocytic TC28 cells or normal knee meniscal cells (5×10^5), were plated in 60 mm dishes and allowed to adhere overnight, as described in the Methods. Two μg of plasmid DNAs or empty plasmid vector were then transfected, performed as described above. After 24 hrs, the cells were removed from the dishes and plated on polyHEME-coated tissue culture plates and media supplemented with 10 mM P-glycerophosphate, ascorbatte (50 μg/ml) and dexamethasone (10^−8 M), which stimulated the cells to form mineralizing nodules for 3-10 days in culture. For comparison purposes, cells were treated only with IL-1 or TGFβ (10 ng/ml each) for up to 10 days. At each time point designated, the cell nodules were collected and lysed, and TGase activity then determined as previously described. For meniscal cells, data pooled from 6 donors studied in triplicate. For TC28 cells, n=6 each, studied in triplicate. Statistics not indicated on this graph, but p<0.05 for the increases in TGase activities in response to both Factor XIIIa and tTGase transfection, and for IL-1 treatment, at all time points.
as §1, with “One hundred μl of a 1:500 dilution of streptavidin-AP in 3% BSA/TBST was added to each well for 1 hr at 23° C. The wells were washed twice with TBST, and 200 μl of solution C (100 mM Tris, pH 9.8, mM NaCl, 5 mM MgCl2, 1 mg/ml of freshly added p-nitrophenylphosphate) was added to each well.” left out, “Purified guinea pig liver TGase (Sigma) was used to prepare a standard curve.” left out, “(28)). […]” for “(28)).”

[3] = test system: meniscal cells and TC28 cells; assay: Matrix calcification, quantitative Alizarin Red S binding assay; assay type: cell-based, human; conditions: polyHEME culture up to 10 days; cytokines 10 ng/ml or TGase transfection
Method: TC28 cells and meniscal cells were transfected with empty plasmid or a TGase expression construct, and then transferred to polyHEME and cultured for up to 10 days, as described above. For comparison purposes, control untransfected cells were treated with IL-1 or TGFβ(10 ng/ml each) for up to 10 days. To measure matrix calcification, media and cells were removed from the PolyHEME-coated dishes, and 1 ml Alizarin Red S solution (0.5% v/v Alizarin Red S, pH 5.0) added to washed plates at 23° C. for 10 min. After further washing, 100 mM Cetylpyridium Chloride was added for 10 min to release the remaining calcium-bound Alizarin Red S. The solution was collected and read at OD570, with 1.0 OD570=1 unit of Alizarin Red released per μg of DNA per culture dish. n=6 each, studied in triplicate, and using 6 different knee meniscal donors. *p<0.05.
To promote matrix calcification in short-term cultures, we modified a nonadherent chondrocyte culture system (37), and assessed cells that formed calcifying nodules over 10 days in culture. In brief, meniscal and TC28 cells, at 24 hours after the transfection, were washed and removed from the dish using 0.2 mg/ml EDTA, pH 8.0, then transferred to 6 well plates that had been previously coated with a 10% (wt./v) in 95% ethanol solution of Poly (2-Hydroxyethyl methacrylate) (polyHEME). […]
To assay calcification of the pericellular matrix of meniscal cells and TC28 cells, we used a quantitative Alizarin Red S binding assay (38). […] The solution was collected and read at OD570 on a SpectraMAX microplate reader (Molecular Devices, Sunnyvale, Calif.), with 1 OD570=1 unit of Alizarin Red released per μg of DNA per culture dish. We extracted matrix crystals from plates under each condition using a papain-hypochlorite method (39), and the crystals were embedded in Spurr epoxy resin, sectioned, and viewed on a Philips EM340 transmission electron micrograph and analyzed by electron diffraction (40,41).

[4] = test system: S100A11 mRNA in human articular chondrocytes; assay: S100A11 mRNA expression by RT-PCR; assay type: cell-based; conditions: 10 ng/ml, 24 hours, relative to L30
Method: Normal human knee articular chondrocytes were treated in culture with IL-1 or IGF-I (10 ng/ml) for 24 hours and ascertained for S100A11 mRNA expression by RT-PCR, relative to the loading control L30, a ribosomal housekeeping gene. Results for induction of S100 A11 representative of 3 separate experiments with different donors.

[5] = test system: alkaline phosphatase (AP); assay: AP activity of cultured meniscal cells; assay type: cell-based, human; conditions: 48 h, 10 ng/ml
Method: (§2) Meniscal cells (from the same donors used in FIG. 3 above) were released from the matrix with collagenase digestion, and grown in monolayer culture for 72 hrs, then trypsinized and plated in 35 mm dishes (containing 3×10^5 cells) and allowed to adhere overnight. Cells were then treated for 48 h with 10 ng/ml of TGFβ or IL-1β (10 ng/ml) in 1% FCS-containing DMEM high glucose medium. The cells were collected and lysed for the TGase (FIG. 5A), NTPPPH (FIG. 5B), and AP (FIG. 5C) assays as described in the Methods. Five micrograms of soluble protein was studied in triplicate for each assay performed as previously described. Results were analyzed by linear regression, with results indicated.
(§3) PPi was determined by differential adsorption on activated charcoal of UDP-D-[6-^3H] glucose (Amersham, Chicago, Ill.) from the reaction product 6-phospho [6-^3H] gluconate (28). Units of NTPPPH and AP were designated as micromoles of substrate hydrolyzed per hour (per μg DNA in each sample) (28). NO release by cultured meniscal cells was measured using the Greiss reaction (33). Concentrations or specific activities of PPi, NTPPPH, and AP were equalized for cellular DNA concentrations in each well.

[6] = test system: NTPPPH; assay: NTPPPH activity of cultured meniscal cells; assay type: cell-based, human; conditions: 48 h, 10 ng/ml
Method: as §2, §3

[7] = test system: tTGase and Factor XIIIa expression in knee articular cartilage and medial meniscus; assay: Immunohistochemistry of cartilage organ culture; assay type: cell-based, human; conditions: organ culture 48 hours
Method: Articular cartilage and medial menisci from normal donors were studied in cartilage organ culture in media supplemented with 1% FCS and 1% L-glutamine, as described in the Methods, following 48 hours of treatment with TGFβ 10 ng/ml, IL-1β (1 ng/ml), or medium alone.
Immunohistochemistry was performed as previously described in detail (30,33,34). In brief, immunohistochemical sections (5 microns) were pretreated with bovine testicular hyaluronidase (0.5 mg/ml at 37° C. for 30 min) and incubated in 5% normal goat or rabbit serum for 20 min prior to avidin/biotin peroxidase staining by the ABC method. Hematoxilin was used as the counterstain. Biotinylated anti-rabbit or anti-goat antibodies served as secondary antibodies. Levamisole was added to block endogenous alkaline phosphatase (AP). Negative controls were nonimmune rabbit or goat serum as a substitute for primary antibody.
Meniscal cells were taken from tissue slices removed from the central regions of the medial and lateral menisci. Where indicated, meniscal organ culture was performed by incubating these slices for b 48 hours in DMEM high glucose containing 1% FCS and 1% L-glutamine (and articular cartilage organ culture performed in the same manner, where indicated). Otherwise, we minced meniscal tissue with a scalpel, incubated in DMEM high glucose containing 2 mg/ml clostridial collagenase, 5% FCS, 1% L-glutamine, 100 units/ml Penicillin and 50 μg/ml Streptomycin (Omega Scientific, Tarzana, Calif.), and incubated on a gyratory shaker at 37° C. until the tissue fragments were digested. Residual multicellular aggregates were removed by sedimentation (1,000×g), and cells were washed three times in DMEM containing 5% FCS.

Row | Compound | Induction of TGase activity in cultured normal knee meniscal cells [1] | TGase activity under mineralizing nonadherent conditions [2] | also measured
1 | CCNCCN(CC)N(O)N=O [Noc-12, reference compound] | shared the ability of II-1 to induce TGase activity | – | –
2 | [NH-]c1c[n+](N2CCOCC2)no1 [Sin-1, reference compound] | shared the ability of II-1 to induce TGase activity | – | –
3 | Factor XIIIa: recombinant human Factor XIIIa cDNA in pUC18, transfected into meniscal and TC28 cells | – | markedly increased TGase activity | Matrix calcification (bound Alizarin Red S) [3]: induced particularly marked increases in the amount of calcium precipitated in the matrix
4 | IGF-1: IGF-1, involved in the pathogenesis of osteoarthritis | – | – | S100A11 mRNA expression [4]: induce mRNA expression of S100A11
5 | TGFβ: Human recombinant TGF-β1 purchased from R&D Systems | did not induce TGase activity; also recorded: but not TGFβ | did not significantly augment activity of TGase | AP activity [5]: did not significantly change; NTPPPH activity [6]: stimulated increased NTPPPH activity in association with aging; tTGase and Factor XIIIa immunostaining ([7]; knee articular cartilage and meniscal cartilage slices, TGFβ 10 ng/ml, IL-1β 1 ng/ml): induced increased tTGase and Factor XIIIa immunostaining; tTGase expression ([7]; knee articular cartilage): up-regulated tTGase expression
6 | TNFα | stimulated increased TGase activity; also recorded: induce TGase activity | – | –
7 | tTGase: human 3.3 kb full length tTGase cDNA construct in pSG5, transfected into cells | – | markedly increased TGase activity | Matrix calcification (bound Alizarin Red S) [3]: induced particularly marked increases in the amount of calcium precipitated in the matrix

Reference: patent publication US20040109845A1, “Method for inhibiting articular cartilage matrix calcification” (priority 2001, published 2004)
